Experimental data as given in patent US20260345641A1, “COMPOSITIONS AND USES THEREOF” (Algorae Pharmaceuticals Ltd, priority 2023, published 2026).

Tested on: SH-SY5Y cells
Experiment: Gene expression analysis by RNA sequencing in the presence of Aβ
Format: cell-based, human
Conditions: 5 μM, with Aβ; for MTR gene expression: P 0.018
Description: The SH-S5Y5 neuroblastoma cell line was used for pre-clinical analysis. The SH-S5Y5 cell line is commonly used as a model for neurodegenerative disorders as the cells can be converted to various types of functional neurons by the addition of specific compounds (see, e.g., Xicoy et al., 2017, Molecular Neurodegeneration, 12: 10). In addition, the SH-S5Y5 cell line has been used widely in experimental neurological studies, including analysis of neuronal differentiation, metabolism, and function related to neurodegenerative processes, neurotoxicity and neuroprotection (see, e.g., Datki et al., 2003, Brain Research Bulletin, 62(3): 22-229; and Xie et al., 2010, Chinese Medical Journal, 123(8): 1086-1092).
Total RNA was isolated from cells using TRIzol in accordance with the manufacturer's instructions (Invitrogen, Carlsbad, CA, USA). RNA concentration and quality was assessed using a NanoDrop spectrophotometer. Only samples with a 260/280 ratio of ≥1.8 were used for further analysis.
Messenger RNA (mRNA) was purified from total RNA using poly-T oligo attached magnetic beads. After fragmentation, cDNA synthesis was performed in accordance with the manufacturer's instructions (Illumina, San Diego, CA, USA) to generate a directional and non-directional library. Libraries were checked with Qubit, real-time PCR was performed for quantification, and size distribution detection was performed using the Bioanalyzer. Quantified libraries were pooled and sequenced on an Illumina platform, according to the manufacturer's instructions.
Raw reads were filtered and mapped to human reference genome (GRCh38/hg38) using HISAT2. Differential gene expression analysis was performed using R Package DEG seq2. […] Manual annotation of genes previously associated with specific neurodegenerative disorders and dementias was performed following a text mining analysis.

COc1cc2c(cc1OC)C(=O)C(CC1CCN(Cc3ccccc3)CC1)C2 (stereo not shown) [Donepezil]
HRAS gene expression (control 19.713, P 0.000): 18.552 | SNHG1 gene expression (control 19.818, P 0.004): 17.384 | SYP gene expression (control 20.006, P 0.004): 15.060 | BACE1 gene expression (control 20.034, P 0.031): 16.945 | ACHE gene expression (control 20.557, P 0.010): 15.012 | SMARCC1 gene expression (control 21.060, P 0.050): 23.108 | CPT1C gene expression (control 21.622, P 0.000): 23.209 | SETD1A gene expression (control 22.012, P 0.020): 11.489 | LRP10 gene expression (control 23.073, P 0.013): 19.237 | DIAPH1 gene expression (control 23.288, P 0.016): 23.289 | NDUFS4 gene expression (control 23.590, P 0.040): 31.457 | TIA1 gene expression (control 24.343, P 0.029): 18.552 | SORCS1 gene expression (control 24.655, P 0.014): 27.879 | MADD gene expression (control 24.804, P 0.015): 17.028 | MAP1B gene expression (control 25.187, P 0.004): 31.197 | PNPLA6 gene expression (control 25.949, P 0.007): 14.472 | HTRA2 gene expression (control 26.112, P 0.003): 24.427 | FUS gene expression (control 26.563, P 0.006): 23.115 | CHRNA3 gene expression (control 26.776, P 0.015): 35.011 | STARD7 gene expression (control 27.791, P 0.022): 25.690 | RGS4 gene expression (control 28.376, P 0.019): 23.445 | RRM2B gene expression (control 28.427, P 0.027): 15.106 | OTUD5 gene expression (control 29.629, P 0.024): 29.255 | MMADHC gene expression (control 29.814, P 0.009): 28.376 | PHF1 gene expression (control 31.064, P 0.022): 22.592 | XPR1 gene expression (control 31.247, P 0.010): 53.075 | TFG gene expression (control 31.479, P 0.015): 30.210 | DEGS1 gene expression (control 32.375, P 0.003): 28.878 | SQSTM1 gene expression (control 32.378, P 0.007): 38.955 | TCF4 gene expression (control 32.383, P 0.017): 36.707 | PDGFRB gene expression (control 32.930, P 0.001): 20.075 | UNC5C gene expression (control 33.422, P 0.001): 34.253 | COL3A1 gene expression (control 34.958, P 0.008): 29.884 | MT-TQ gene expression (control 37.146, P 0.001): 28.576 | NID1 gene expression (control 38.202, P 0.008): 51.536 | COASY gene expression (control 38.304, P 0.003): 24.487 | TMEM230 gene expression (control 40.014, P 0.054): 35.809 | GRN gene expression (control 43.913, P 0.009): 38.715 | SOD1 gene expression (control 44.413, P 0.023): 54.134 | HNRNPDL gene expression (control 44.506, P 0.001): 58.385 | EIF4G1 gene expression (control 46.194, P 0.005): 47.437 | VCP gene expression (control 49.074, P 0.025): 49.391 | ATP6V1E1 gene expression (control 51.257, P 0.048): 41.488 | GBA2 gene expression (control 53.427, P 0.010): 42.069 | PARK7 gene expression (control 54.907, P 0.006): 62.824 | EEF1A2 gene expression (control 63.840, P 0.016): 77.336 | MT-TP gene expression (control 74.063, P 0.023): 57.524 | U2AF2 gene expression (control 88.738, P 0.014): 53.895 | MT-TS1 gene expression (control 108.757, P 0.004): 75.947 | PRDX1 gene expression (control 137.725, P 0.007): 123.771 | HNRNPA1 gene expression (control 180.363, P 0.003): 274.269 | GNAS gene expression (control 193.754, P 0.003): 202.087 | MT-ND6 gene expression (control 281.366, P 0.001): 64.249 | APP gene expression (control 293.865, P 0.033): 159.632 | PFN1 gene expression (control 386.845, P 0.010): 384.213 | MT-ATP8 gene expression (control 388.214, P 0.017): 298.175 | FTL gene expression (control 423.318, P 0.015): 514.018 | MT-ND5 gene expression (control 1304.948, P 0.012): 1379.984 | MT-ND1 gene expression (control 2654.440, P 0.010): 2177.390 | MT-ND2 gene expression (control 2855.888, P 0.019): 2011.949 | MT-CYB gene expression (control 4523.043, P 0.003): 4140.601 | MT-CO3 gene expression (control 6360.482, P 0.003): 6139.890 | MT-ATP6 gene expression (control 6754.328, P 0.009): 5525.655 | COL4A1 gene expression (first listing, control 3.205, P 0.014): 6.341 | APBB2 gene expression (first listing, control 7.376, P 0.015): 5.038 | MTR gene expression (first listing, control 7.739): 9.723 | DNAJC6 gene expression (first listing, control 11.205, P 0.017): 14.537 | TWNK gene expression (first listing, control 25.053, P 0.010): 15.384 | COL4A1 gene expression (second listing, control 3.206, P 0.014): 4.649 | APBB2 gene expression (second listing, control 7.118, P 0.015): 6.231 | MTR gene expression (second listing, control 8.443): 8.954 | DNAJC6 gene expression (second listing, control 12.142, P 0.017): 12.821 | TWNK gene expression (second listing, control 22.506, P 0.010): 19.867
